In patent US20040102454A1, “Phenylahistin and the phenylahistin analogs, a new class of anti-tumor compounds” (priority 1998, published 2004):
pIC50: −log10 of the molar value.

Columns and labels:
Experiment in all cases: HCC panel assay, sulforhodamine B
Assay type in all cases: cell-based
ACHN = conditions: Renal, (−)-PLH content 24.1%
Procedure: (§1) The antitumor activity of PLH was evaluated by the Human Cancer Cell Line Panel (HCC panel) assay, see Yamori T., Jap. J Cancer Chemother., (1997), 24, 129-35. This HCC panel consists of 38 tumor cell lines including 7 lung cancer, 6 stomach, 6 colon, 5 ovary, 6 central nerve system, 5 breast, 2 kidney and 1 melanoma cell lines. Each tumor cell was seeded in 96-well tissue culture plates and incubated overnight. Various concentrations (5 doses; final 10^−4, 10^−5, 10^−6, 10^−7 and 10^−8 M) of PLH were added, and the cells were incubated for 48 hours. […] All mice were obtained from Japan SLC (Shizuoka, Japan), P388 leukemia cells were obtained from Dainippon Pharmaceuticals Inc. (Osaka, Japan), Lewis Lung Carcinoma from Riken Cell Bank (Tsukuba, Japan), and Colon 26 cells from the National Cancer Center, Japan (Tokyo, Japan).

HBC-4 = conditions: HBC-4, Breast, (−)-PLH content 24.1%
Procedure: as §1

NCI-H226 = conditions: NCI-H226, Lung, (−)-PLH content 24.1%
Procedure: as §1

A549 = conditions: A549, Lung, (−)-PLH content 24.1%
Procedure: as §1

MCF-7 = conditions: MCF-7, Breast, (−)-PLH content 24.1%
Procedure: as §1

NCI-H460 = conditions: NCI-H460, Lung, (−)-PLH content 24.1%
Procedure: as §1

SF-295 = conditions: SF-295, CNS, (−)-PLH content 24.1%
Procedure: as §1

SF-268 = conditions: SF-268, CNS, (−)-PLH content 24.1%
Procedure: as §1

SK-OV-3 = conditions: SK-OV-3, Ovary, (−)-PLH content 24.1%
Procedure: as §1

MKN74 = conditions: MKN74, Stomach, (−)-PLH content 24.1%
Procedure: as §1

KM-12 = conditions: KM-12, Colon, (−)-PLH content 24.1%
Procedure: as §1

HCC2998 = conditions: HCC2998, Colon, (−)-PLH content 24.1%
Procedure: as §1

HBC-5 = conditions: HBC-5, Breast, (−)-PLH content 24.1%
Procedure: as §1

HT-29 = conditions: HT-29, Colon, (−)-PLH content 24.1%
Procedure: as §1

MKN1 = conditions: MKN1, Stomach, (−)-PLH content 24.1%
Procedure: as §1

St-4 = conditions: St-4, Stomach, (−)-PLH content 24.1%
Procedure: as §1

HCT-116 = conditions: HCT-116, Colon, (−)-PLH content 24.1%
Procedure: as §1

WiDr = conditions: Colon, (−)-PLH content 24.1%
Procedure: as §1

MKN28 = conditions: MKN28, Stomach, (−)-PLH content 24.1%
Procedure: as §1

HCT-15 = conditions: HCT-15, Colon, (−)-PLH content 24.1%
Procedure: as §1

OVCAR-5 = conditions: OVCAR-5, Ovary, (−)-PLH content 24.1%
Procedure: as §1

[1] = Homo sapiens, read-out: GL50 (the source's name)
[2] = Homo sapiens, read-out: LC50 (the source's name)

What does the source list for `C=CC(C)(C)c1[nH]cnc1/C=C1\NC(=O)[C@H](Cc2ccccc2)NC1=O` (racemic) [PLH, phenylahistin]?
pIC50 (ACHN; [1]): 4.55; CC50 (ACHN; [2]): > 100 µM; TGI (ACHN): >100 µM; TGI (HBC-4): >100 µM; pIC50 (HBC-4; Homo sapiens, HBC4, read-out: GL50 (the source's name)): 6.34; CC50 (HBC-4; Homo sapiens, HBC4, read-out: LC50 (the source's name)): > 100 µM; pIC50 (NCI-H226; [1]): 6.39; CC50 (NCI-H226; [2]): > 100 µM; TGI (NCI-H226): 31 µM; TGI (A549): >100 µM; pIC50 (A549; [1]): 6.01; CC50 (A549; [2]): > 100 µM; pIC50 (MCF-7; Homo sapiens, MCF7, read-out: GL50 (the source's name)): 6.33; CC50 (MCF-7; Homo sapiens, MCF7, read-out: LC50 (the source's name)): > 100 µM; TGI (MCF-7): >100 µM; pIC50 (NCI-H460; [1]): 6.39; CC50 (NCI-H460; [2]): > 100 µM; TGI (NCI-H460): >100 µM; pIC50 (SF-295; [1]): 6.49; CC50 (SF-295; [2]): > 100 µM; TGI (SF-295): 2.4 µM; pIC50 (SF-268; [1]): 6.39; CC50 (SF-268; [2]): > 100 µM; TGI (SF-268): >100 µM; pIC50 (SK-OV-3; [1]): 6.43; CC50 (SK-OV-3; [2]): > 100 µM; TGI (SK-OV-3): >100 µM; pIC50 (MKN74; Homo sapiens, MKN-74, read-out: GL50 (the source's name)): 6.32; CC50 (MKN74; Homo sapiens, MKN-74, read-out: LC50 (the source's name)): > 100 µM; TGI (MKN74): >100 µM; pIC50 (KM-12; Homo sapiens, KM12, read-out: GL50 (the source's name)): 6.42; CC50 (KM-12; Homo sapiens, KM12, read-out: LC50 (the source's name)): > 100 µM; TGI (KM-12): >100 µM; TGI (HCC2998): 5.3 µM; pIC50 (HCC2998; Homo sapiens, HCC 2998, read-out: GL50 (the source's name)): 5.96; CC50 (HCC2998; Homo sapiens, HCC 2998, read-out: LC50 (the source's name)): > 100 µM; TGI (HBC-5): >100 µM; pIC50 (HBC-5; Homo sapiens, HBC5, read-out: GL50 (the source's name)): 6.22; CC50 (HBC-5; Homo sapiens, HBC5, read-out: LC50 (the source's name)): > 100 µM; TGI (HT-29): >100 µM; pIC50 (HT-29; [1]): 6.40; CC50 (HT-29; [2]): > 100 µM; pIC50 (MKN1; Homo sapiens, MKN-1, read-out: GL50 (the source's name)): 6.40; CC50 (MKN1; Homo sapiens, MKN-1, read-out: LC50 (the source's name)): > 100 µM; TGI (MKN1): 21 µM; pIC50 (St-4; [1]): 4.40; CC50 (St-4; [2]): > 100 µM; TGI (St-4): >100 µM; TGI (HCT-116): >100 µM; pIC50 (HCT-116; [1]): 6.32; CC50 (HCT-116; [2]): > 100 µM; TGI (WiDr): 0.79 µM; pIC50 (WiDr; [1]): 6.57; CC50 (WiDr; [2]): > 100 µM; pIC50 (MKN28; Homo sapiens, MKN-28, read-out: GL50 (the source's name)): 6.38; CC50 (MKN28; Homo sapiens, MKN-28, read-out: LC50 (the source's name)): > 100 µM; TGI (MKN28): >100 µM; TGI (HCT-15): >100 µM; pIC50 (HCT-15; [1]): 6.31; CC50 (HCT-15; [2]): > 100 µM; pIC50 (OVCAR-5; [1]): 5.92; CC50 (OVCAR-5; [2]): > 100 µM; TGI (OVCAR-5): >100 µM
